Test results from ChEMBL document CHEMBL5506055, “Hit-to-Lead Optimization of the Natural Product Oridonin as Novel NLRP3 Inflammasome Inhibitors with Potent Anti-Inflammation Activity” (J Med Chem, 2024).
The source made the active and inactive calls. No cut-off for these calls is given here.

Molecular target: NACHT, LRR and PYD domains-containing protein 3 (Mus musculus) (UniProt Q8R4B8)
Test: Inhibition of NLRP3 inflammasome activation in LPS/ATP-induced C57BL/6 mouse BMDMs assessed as inhibition of ASC oligomerization by measuring reduction in pro-IL-1beta expression at 50 to 200 nM preincubated with LPS for 4 hrs followed by compound addition for 30 mins and further stimulated with ATP for 30 mins by Western blotting analysis
Assay type: cell-based
Conditions: BMDM, dose 50-200 nM, time 1.0 hrs

NACHT, LRR and PYD domains-containing protein 3 (Mus musculus), sequence (Q8R4B8 whole entry, the tested form may be a part): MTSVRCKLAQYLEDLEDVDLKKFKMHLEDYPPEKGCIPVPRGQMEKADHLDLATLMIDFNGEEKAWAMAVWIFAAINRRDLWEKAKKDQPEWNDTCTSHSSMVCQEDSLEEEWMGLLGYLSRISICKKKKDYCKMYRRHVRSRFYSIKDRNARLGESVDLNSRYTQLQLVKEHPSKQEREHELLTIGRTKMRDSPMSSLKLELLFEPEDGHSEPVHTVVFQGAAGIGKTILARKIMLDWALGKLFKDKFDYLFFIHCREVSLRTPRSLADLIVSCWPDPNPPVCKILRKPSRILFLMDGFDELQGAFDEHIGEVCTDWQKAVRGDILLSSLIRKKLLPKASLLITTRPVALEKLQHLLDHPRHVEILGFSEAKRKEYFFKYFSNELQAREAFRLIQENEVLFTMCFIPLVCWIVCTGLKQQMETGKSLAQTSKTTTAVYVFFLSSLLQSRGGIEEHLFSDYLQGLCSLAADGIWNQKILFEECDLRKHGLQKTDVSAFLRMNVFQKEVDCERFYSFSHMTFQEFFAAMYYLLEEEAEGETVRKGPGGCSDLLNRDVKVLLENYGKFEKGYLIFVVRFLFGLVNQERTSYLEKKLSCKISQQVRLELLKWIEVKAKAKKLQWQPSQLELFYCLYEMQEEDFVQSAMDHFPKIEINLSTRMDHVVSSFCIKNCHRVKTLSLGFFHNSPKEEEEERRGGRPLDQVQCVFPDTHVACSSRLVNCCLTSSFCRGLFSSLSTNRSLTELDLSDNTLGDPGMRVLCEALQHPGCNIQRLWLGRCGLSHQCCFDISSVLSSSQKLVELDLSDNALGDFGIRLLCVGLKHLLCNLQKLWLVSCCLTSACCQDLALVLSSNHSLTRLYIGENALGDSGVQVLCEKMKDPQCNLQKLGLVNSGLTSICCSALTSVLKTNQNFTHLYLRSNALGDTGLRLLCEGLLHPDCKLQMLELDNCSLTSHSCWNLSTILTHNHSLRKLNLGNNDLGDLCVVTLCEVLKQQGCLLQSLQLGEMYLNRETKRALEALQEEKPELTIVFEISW

In the case of C=C1C(=O)[C@]23[C@H](O)[C@H]1CC[C@H]2[C@]12C=CCC(C)(C)[C@H]1[C@H](O)[C@@]3(OCCC(=O)O)OC2, the inhibition is reported as “inactive”.
